Counter-ions that a name gives are not always drawn.
These molecules were tested on Acinetobacter baumannii ATCC17961 (assay: Antimicrobial susceptibility testing: 90% growth inhibitory concentration (IC90) determination). Settings: 90% growth inhibitory concentration against Acinetobacter baumannii ATCC17961, Iso-Sensitest broth, OD 600 nm over 16 h; read-out: ATCC 17961 IC90.
Type: cell-based
How it was run: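 OD600 monitored each minute over 16 h at 35±2° C for bacteria (~5×10^5 CFU/mL final) in Iso-Sensitest medium with 10-point twofold compound series (e.g. 10-0.0195 μM final). Concentration giving 90% growth inhibition in log phase reported as IC90.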

Row | SMILES | IC90
1 | Cn1c(-c2cn(-c3ccc4c(ccn4CC(N)=O)n3)nc2C(F)(F)F)cnc1C(=O)Nc1ccc(C(=O)N2CCN(C(=O)C3CC[N+](CC(=O)O)(CC4CNC4)CC3)CC2)c(Cl)c1 (stereo not drawn) [Example 199, cis-2-[4-[4-[4-[[5-[1-[1-(2-amino-2-keto-ethyl)pyrrolo[3,2-b]pyridin-5-yl]-3-(trifluoromethyl)pyrazol-4-yl]-1-methyl-imidazole-2-carbonyl]amino]-2-chloro-benzoyl]piperazine-1-carbonyl]-1-(azetidin-3-ylmethyl)piperidin-1-ium-1-yl]acetic acid. 1:1 2,2,2-trifluoroacetate] | 308 nM
2 | Cn1c(-c2cn(-c3ccc(N)cn3)nc2C(F)(F)F)cnc1C(=O)Nc1ccc(C(=O)N2CCN(C(=O)CCC[N+](CCCN)(CCCN)CC(=O)O)CC2)c(Cl)c1 [Example 66, bis(3-aminopropyl)-[4-[4-[4-[[5-[1-(5-amino-2-pyridyl)-3-(trifluoromethyl)pyrazol-4-yl]-1-methyl-imidazole-2-carbonyl]amino]-2-chloro-benzoyl]piperazino]-4-keto-butyl]-(carboxymethyl)ammonium. 1:1 2,2,2-trifluoroacetate] | 720 nM

Same assay, conditions: Acinetobacter baumannii, ATCC17961, 16 h, 90% growth inhibitory concentration against Acinetobacter baumannii ATCC17961, Iso-Sensitest broth, OD 600 nm over 16 h; read-out: ATCC 17961 IC90

Row | SMILES | IC90
3 | Cn1c(-c2cn(-c3ccc4[nH]ncc4n3)nc2C(F)(F)F)cnc1C(=O)Nc1ccc(C(=O)N2CCN(C(=O)[C@H]3CC[N@+](CC(=O)O)(CC4CNC4)CC3)CC2)c(Cl)c1 [Example 42, cis-2-[1-(azetidin-3-ylmethyl)-4-[4-[2-chloro-4-[[1-methyl-5-[1-(1H-pyrazolo[4,3-b]pyridin-5-yl)-3-(trifluoromethyl)pyrazol-4-yl]imidazole-2-carbonyl]amino]benzoyl]piperazine-1-carbonyl]piperidin-1-ium-1-yl]acetic acid. 1:1 2,2,2-trifluoroacetate] | 440 nM
4 | Cn1c(-c2cn(-c3cc4[nH]c(C(=O)N5CCOCC5)cc4cn3)nc2C(F)(F)F)cnc1C(=O)Nc1ccc(C(=O)N2CCN(C(=O)[C@H]3CC[N@+](CC(=O)O)(CC4CNC4)CC3)CC2)c(Cl)c1 [Example 139, cis-2-[1-(azetidin-3-ylmethyl)-4-[4-[2-chloro-4-[[1-methyl-5-[1-[2-(morpholine-4-carbonyl)-1H-pyrrolo[3,2-c]pyridin-6-yl]-3-(trifluoromethyl)pyrazol-4-yl]imidazole-2-carbonyl]amino]benzoyl]piperazine-1-carbonyl]piperidin-1-ium-1-yl]acetic acid. 1:1 2,2,2-trifluoroacetate] | 172 nM
5 | Cn1c(-c2cn(-c3cc4[nH]c(C(=O)N5CCO[C@]6(CCOC6)C5)cc4cn3)nc2C(F)(F)F)cnc1C(=O)Nc1ccc(C(=O)N2CCN(C(=O)[C@H]3CC[N@+](CC(=O)O)(CC4CNC4)CC3)CC2)c(Cl)c1 [Example 121, cis-2-[1-(azetidin-3-ylmethyl)-4-[4-[2-chloro-4-[[5-[1-[2-[(5R)-2,6-dioxa-9-azaspiro[4.5]decane-9-carbonyl]-1H-pyrrolo[3,2-c]pyridin-6-yl]-3-(trifluoromethyl)pyrazol-4-yl]-1-methyl-imidazole-2-carbonyl]amino]benzoyl]piperazine-1-carbonyl]piperidin-1-ium-1-yl]acetic acid. 1:1 2,2,2-trifluoroacetate] | 375 nM
6 | Cn1c(-c2cn(-c3ccc(N)cn3)nc2C(F)(F)F)cnc1C(=O)Nc1ccc(C(=O)N2CCN(C(=O)[C@@H](N)CC(=O)O)CC2)c(Cl)c1 [Example 91, (3S)-3-amino-4-[4-[4-[[5-[1-(5-amino-2-pyridyl)-3-(trifluoromethyl)pyrazol-4-yl]-1-methyl-imidazole-2-carbonyl]amino]-2-chloro-benzoyl]piperazino]-4-keto-butyric acid. 1:1 2,2,2-trifluoroacetic acid] | 1530 nM
7 | CN(C)c1ccc(-n2cc(-c3cnc(C(=O)Nc4ccc(C(=O)N5CCN(C(=O)[C@H]6CC[N@+](CC(=O)O)(CC7CNC7)CC6)CC5)c(F)c4)n3C)c(C(F)(F)F)n2)c(F)c1 [Example 109, cis-2-[1-(azetidin-3-ylmethyl)-4-[4-[4-[[5-[1-[4-(dimethylamino)-2-fluoro-phenyl]-3-(trifluoromethyl)pyrazol-4-yl]-1-methyl-imidazole-2-carbonyl]amino]-2-fluoro-benzoyl]piperazine-1-carbonyl]piperidin-1-ium-1-yl]acetic acid; 2,2,2-trifluoroacetate] | 213 nM
8 | CNc1ccc(-n2cc(-c3cnc(C(=O)Nc4ccc(C(=O)N5CCN(C(=O)[C@H]6CC[N@+](CC(=O)O)(CC7CNC7)CC6)CC5)c(Cl)c4)n3C)c(C(F)(F)F)n2)c(F)c1 [Example 176, cis-2-[1-(azetidin-3-ylmethyl)-4-[4-[2-chloro-4-[[5-[1-[2-fluoro-4-(methylamino)phenyl]-3-(trifluoromethyl)pyrazol-4-yl]-1-methyl-imidazole-2-carbonyl]amino]benzoyl]piperazine-1-carbonyl]piperidin-1-ium-1-yl]acetic acid. 1:1 formate] | 88.1 nM
9 | Cn1c(-c2cn(-c3ccc(NCC(C)(C)O)cc3F)nc2C(F)(F)F)cnc1C(=O)Nc1ccc(C(=O)N2CCN(C(=O)[C@H]3CC[N@+](CC(=O)O)(CC4CNC4)CC3)CC2)c(Cl)c1 [Example 164, cis-2-[1-(azetidin-3-ylmethyl)-4-[4-[2-chloro-4-[[5-[1-[2-fluoro-4-[(2-hydroxy-2-methyl-propyl)amino]phenyl]-3-(trifluoromethyl)pyrazol-4-yl]-1-methyl-imidazole-2-carbonyl]amino]benzoyl]piperazine-1-carbonyl]piperidin-1-ium-1-yl]acetic acid;formate] | 163 nM
10 | CNc1ccc(-n2cc(-c3cnc(C(=O)Nc4ccc(C(=O)N5CCN(C(=O)[C@H]6CC[N@+](CC(=O)O)(CC7CNC7)CC6)CC5)c(Cl)c4)n3C)c(C(F)(F)F)n2)nc1 [Example 29, cis-2-[1-(azetidin-3-ylmethyl)-4-[4-[2-chloro-4-[[1-methyl-5-[1-[5-(methylamino)-2-pyridyl]-3-(trifluoromethyl)pyrazol-4-yl]imidazole-2-carbonyl]amino]benzoyl]piperazine-1-carbonyl]piperidin-1-ium-1-yl]acetic acid. 1:1 2,2,2-trifluoroacetate] | 360 nM
11 | Cn1c(-c2cn(-c3cc(N)ccn3)nc2C(F)(F)F)cnc1C(=O)Nc1ccc(C(=O)N2CCN(C(=O)C3CC[N+](CC(=O)O)(CC4CNC4)CC3)CC2)c(Cl)c1 (stereo not shown) [Example 71, 2-[4-[4-[4-[[5-[1-(4-amino-2-pyridyl)-3-(trifluoromethyl)pyrazol-4-yl]-1-methyl-imidazole-2-carbonyl]amino]-2-chloro-benzoyl]piperazine-1-carbonyl]-1-(azetidin-3-ylmethyl)piperidin-1-ium-1-yl]acetic acid. 1:1 2,2,2-trifluoroacetate] | 860 nM
12 | Cn1c(-c2cn(-c3ccc4[nH]ccc4n3)nc2C(F)(F)F)cnc1C(=O)Nc1ccc(C(=O)N2CCN(C(=O)CCC[N+](CCCCN)(CCCCN)CC(=O)O)CC2)c(Cl)c1 [Example 9, Bis(4-aminobutyl)-(carboxymethyl)-[4-[4-[2-chloro-4-[[1-methyl-5-[1-(1H-pyrrolo[3,2-b]pyridin-5-yl)-3-(trifluoromethyl)pyrazol-4-yl]imidazole-2-carbonyl]amino]benzoyl]piperazino]-4-keto-butyl]ammonium.1:1 2,2,2-trifluoroacetic Acid. 1:1 2,2,2-trifluoroacetate] | 100 nM
13 | CNC(=O)c1c[nH]c2cc(-n3cc(-c4cnc(C(=O)Nc5ccc(C(=O)N6CCN(C(=O)[C@H]7CC[N@+](CC(=O)O)(CC8CNC8)CC7)CC6)c(Cl)c5)n4C)c(C(F)(F)F)n3)ncc12 [Example 156, cis-2-[1-(azetidin-3-ylmethyl)-4-[4-[2-chloro-4-[[1-methyl-5-[1-[3-(methylcarbamoyl)-1H-pyrrolo[3,2-c]pyridin-6-yl]-3-(trifluoromethyl)pyrazol-4-yl]imidazole-2-carbonyl]amino]benzoyl]piperazine-1-carbonyl]piperidin-1-ium-1-yl]acetic acid. 1:1 2,2,2-trifluoroacetate] | 156 nM
14 | Cn1c(-c2cn(-c3ccc(N)cn3)nc2C(F)(F)F)cnc1C(=O)Nc1ccc(C(=O)N2C3CCC2CN(C(=O)C2CC[N+](CC(=O)O)(CC4CNC4)CC2)C3)c(Cl)c1 (stereo not shown) [Example 89, 2-[4-[8-[4-[[5-[1-(5-amino-2-pyridyl)-3-(trifluoromethyl)pyrazol-4-yl]-1-methyl-imidazole-2-carbonyl]amino]-2-chloro-benzoyl]-3,8-diazabicyclo[3.2.1]octane-3-carbonyl]-1-(azetidin-3-ylmethyl)piperidin-1-ium-1-yl]acetic acid. 1:1 formate] | 1490 nM
15 | Cn1c(-c2cn(-c3cccc(N)n3)nc2C(F)(F)F)cnc1C(=O)Nc1ccc(C(=O)N2CCN(C(=O)C3CC[N+](CC(=O)O)(CC4CNC4)CC3)CC2)c(Cl)c1 (stereo not shown) [Example 56, 2-[4-[4-[4-[[5-[1-(6-amino-2-pyridyl)-3-(trifluoromethyl)pyrazol-4-yl]-1-methyl-imidazole-2-carbonyl]amino]-2-chloro-benzoyl]piperazine-1-carbonyl]-1-(azetidin-3-ylmethyl)piperidin-1-ium-1-yl]acetic acid. 1:1 2,2,2-trifluoroacetate] | 560 nM
16 | COCC1CN(C(=O)c2ccc(NC(=O)c3ncc(-c4cn(-c5ccc(N)cn5)nc4C(F)(F)F)n3C)cc2Cl)CCN1C(=O)C1CC[N+](CC(=O)O)(CC2CNC2)CC1 (stereo not shown) [Example 97, 2-[4-[4-[4-[[5-[1-(5-amino-2-pyridyl)-3-(trifluoromethyl)pyrazol-4-yl]-1-methyl-imidazole-2-carbonyl]amino]-2-chloro-benzoyl]-2-(methoxymethyl)piperazine-1-carbonyl]-1-(azetidin-3-ylmethyl)piperidin-1-ium-1-yl]acetic acid. 1:1 formate] | 1840 nM

Reference: patent publication US20250179066A1, “ZWITTERIONIC ANTIBACTERIAL COMPOUNDS” (Hoffmann-La Roche Inc., priority 2022, published 2025)
